Data set [1] can be described thus: Microsomal (metabolic) stability. Conditions: human liver microsomes 1.0 mg/ml; for half-life at 1 µM / microsomal CLint at 1 µM / remaining at 80 min, 1 µM: pH 7.4; for remaining at 80 min, 1 µM: 80-min incubation. Format: in vitro ADME. As for the experimental part:
A metabolic stability experiment was conducted to calculate the rate of disappearance of polyene macrolides following in vitro incubation with human microsomes. Working solutions of polyene macrolides were prepared from a 10 mM stock solution in dimethyl sulfoxide (DMSO) diluted to a final concentration of 1 µM in 0.1 M potassium phosphate buffer (pH 7.4). Each incubation mixture included 1 mg/mL human microsomal protein (BD Gentest^TM, Franklin Lakes, NJ, USA) and 1 mM NADPH. The reactions were terminated at 0, 15, 45, and 80 min. The reaction mixtures were vigorously vortexed and then analyzed using the API2000 LC-MS/MS) system (Applied Biosystems, USA) using an Xterra MS C18 (3.5-µm, 2.1 × 50 mm, Waters).
Background: Liver microsomes are vesicles of endoplasmic reticulum, rich in cytochrome P450 enzymes.

For data set [2], the system named is ergosterol-containing membranes. The data set can be described thus: Preliminary SPR experiments. Conditions: unpublished data. It counts as binding.
In data set [3] the test system is cholesterol-containing membranes. Nature of the data set: Preliminary SPR experiments. It counts as binding. The note with it: unpublished data. Background: Surface plasmon resonance follows binding to a sensor surface in real time, without labels.
The next data set relates to C. albicans. Nature of the data set: In vitro antifungal activity against four different C. albicans strains (comparison). Format: cell-based, Candida albicans. The procedure: (§1) For the minimum inhibitory concentration (MIC) assay, strains for testing were grown on YPD agar for 24 hours, and subcultured to YPD broth medium. Whole strains were incubated for 18 hours at 35 °C by shaking incubator. Grown organisms were diluted with fresh RPMI 1640 medium to appropriate concentration, 5 × 10^4 CFU/ml. Cultures were inoculated to 96-well plates containing antifungal medium. All compounds were dissolved using Dimethyl Sulfoxide (DMSO) and diluted broth media. Fungal diluted solution and antifungal medium were mixed at 1:1 ratio so total 200 ul mixed medium was made. Whole experiment plates were incubated for 24 hours at 37 °C. […] The MICs were calculated in duplicate using the Clinical and Laboratory Standards Institute M27-A3 microbroth methodology. Hemolysis experiments and the 3-(4,5-dimethylthiazol-2-yl)-5-(3-carboxymethoxyphenyl)-2-(4-sulfophenyl)-2H-tetrazolium (MTS) cell proliferation colorimetric assay were performed following known procedures[12],[27],[29].

The next data set deals with Hep3B cells. Nature of the data set: In vitro hepatotoxicity (MTS cell proliferation assay). Format: cell-based, human. The procedure: as §1
In general terms: Formazan colour is commonly taken as a measure of viable cells.

The next data set concerns HepG2 cells. Described as above. It counts as cell-based, human. The procedure: as §1

Each structure is given as a SMILES string. A value given as a limit tells only on which side of the number the result lay.

A word on the half-life: it is the time needed for the level to fall by half in the phase considered. High values mean slow loss, low ones fast loss. For orientation: microsomal CLint means the capacity of the preparation to metabolise the compound, expressed as a volume cleared per time. A low value points to slow turnover. For the molecule `C[C@@H]1[C@H](O)[C@@H](C)/C=C/C=C/C=C/C=C/C=C/C=C/C=C/[C@H](O[C@@H]2O[C@H](C)[C@@H](O)[C@H](N)[C@@H]2O)C[C@@H]2O[C@](O)(C[C@@H](O)C[C@@H](O)[C@H](O)CC[C@@H](O)C[C@@H](O)CC(=O)O[C@H]1C)C[C@H](O)[C@H]2C(=O)O` [Amphotericin B, amphotericin B], in data set [1], the Clearance class entry is “Low”; the half-life at 1 µM is more than 80 min; the microsomal CLint at 1 µM was less than 8600 µL/min/mg; the fraction remaining at 80 min, 1 µM was found to be 101%. The “affinity compared with NPP B1” value in data set [2] (ergosterol-containing membranes) is “higher affinity”. In addition, the “affinity compared with NPP B1” value in data set [3] is on record as “higher affinity”. The lethality in rats entry (1 mg/kg dose) is on record as “killed all the tested rats”.

On to `CC(=O)NC1C(OC2C(C)OC(OC3C=CC=CC=CC=CC=CC=CC=CC(C)C(O)C(C)C(C)OC(=O)CC(O)CC(O)CC(O)CCC(O)C(O)CC4(O)CC(O)C(C(=O)O)C(C3)O4)C(O)C2N)OC(CO)C(O)C1O` (centres unmarked) [NPP B1, Nystatin-like Pseudonocardia polyene B1], for which, in data set [1], the Clearance class entry is listed as “Moderate”, the k turned out to be 0.019, the half-life at 1 µM came out at 36.5 min and the intrinsic clearance (microsomal CLint) at 1 µM is 19000 µL/min/mg. In addition, the share remaining at 80 min, 1 µM in data set [1] is 28.2%. Further, the “antifungal activity, fold lower than amphotericin B” value with C. albicans stood at 2 fold. The “in vitro hepatotoxicity compared with AmB” value in the data set on Hep3B cells is “not improved”. For the same molecule, the “in vitro hepatotoxicity compared with AmB” value in the data set with HepG2 cells is “not improved”. The binding preference entry in data set [2] (ergosterol- vs cholesterol-containing liposomes) was “binds preferentially to ergosterol-containing liposomes”. Moreover, the “detection in the plasma following oral administration” value (rats, oral administration) is listed as “not detected”.

Source of the values: publication PMC6134108, “Nystatin-like Pseudonocardia polyene B1, a novel disaccharide-containing antifungal heptaene antibiotic” (Scientific Reports, 2018).
